According to patent publication US10421754B2, “Quinazoline derivative” (CSPC ZHONGQI PHARMACEUTICAL TECHNOLOGY (SHIJIAZHUANG) CO., …, priority 2014, dated 2019):

Tests used:
A375 = assay: In vitro cell experiment (MTT), A375; assay type: cell-based; conditions: A-375, 72 h, human melanoma cells (KDR expressing)
Experimental: (§1) Cells in logarithmic growth phase were seeded at a certain density in a 96-well plate (200 μL/well). The cells were allowed to grow for 24 h and subsequently treated with different concentrations of drugs (including a blank group and a control group) and incubated for 72 h at 37° C. Each concentration in a given experiment was tested in triplicate. After 72 h of exposure, 20 μL of the MTT labeling reagent was added to the medium (the final concentration of MTT was 0.5 mg/mL), and the cells were incubated for additional 4 h at 37° C. Following this process, 180 μL of the medium was removed and 130 μL of DMSO was added to each well, or the medium was completely removed and 150 μL of DMSO was added to each well. Then the plate was shaken and mixed in a micro-oscillator. Finally the optical density (OD) of each sample was measured in a micro-plate reader at 550 nm. Cell inhibition rate was calculated according to the following formula: […]
(§2) According to cell inhibition rates, IC50 was calculated by LOGIT method. The experiments were repeated twice and the data was expressed as means±SD.

HCC827 = assay: In vitro cell experiment (MTT), HCC827; assay type: cell-based; conditions: 72 h, human non-small cell lung carcinoma (EGFR1 19 exon mutation)
Experimental: as §1, §2

HCT116 = assay: In vitro cell experiment (MTT), HCT116; assay type: cell-based; conditions: HCT-116, 72 h, human colon carcinoma cells
Experimental: as §1, §2

HUVEC = assay: In vitro cell experiment (MTT), HUVEC; assay type: cell-based; conditions: 72 h, human umbilical vein endothelial cell (KDR overexpressing)
Experimental: as §1, §2

H292 = assay: In vitro cell experiment (MTT), H292; assay type: cell-based; conditions: NCI-H292, 72 h, human lung carcinoma cells (EGFR1 overexpressing)
Experimental: as §1, §2

Eca109 = assay: In vitro cell experiment (MTT), Eca109; assay type: cell-based; conditions: ECa-109, 72 h, human esophageal carcinoma cells
Experimental: as §1, §2

Bel-7402 = assay: In vitro cell experiment (MTT), Bel-7402; assay type: cell-based; conditions: 72 h, human hepatoma carcinoma cells
Experimental: as §1, §2

SK-OV-3 = assay: In vitro cell experiment (MTT), SK-OV-3; assay type: cell-based; conditions: 72 h, human ovarian carcinoma cells (EGFR2 overexpressing)
Experimental: as §1, §2

A498 = assay: In vitro cell experiment (MTT), A498; assay type: cell-based; conditions: 72 h, human renal carcinoma cells
Experimental: as §1, §2

[1] = Mouse maximum tolerated dose (MTD) experiment; conditions: in vivo, mice, oral, administered 7 days then observed 7 days
Experimental: In the mouse MTD experiment, the mice were administrated with the present compounds.
Healthy mice, having a small difference in body's weights, were chosen. The chosen mice were placed in different layers of cages according to their body's weights. In each layer, the mice were randomly divided into groups. In each group, there were three mice.
The administration dosages were 1000, 500, 250, 125, 62.5 and 31.25 mg/kg respectively and each two dosages differed by a factor of 2. For each of administration dosages, three mice were allotted. The mice were administrated with the present compounds for 7 days and then observed for the next 7 days without the present compounds.
The present compounds were orally administrated with the mice according to the administration dosage and the body weight.

SGC7901 = assay: In vitro cell experiment (MTT), SGC7901; assay type: cell-based; conditions: SGC-7901, 72 h, human gastric carcinoma cells
Experimental: as §1, §2

A549 = assay: In vitro cell experiment (MTT), A549; assay type: cell-based; conditions: 72 h, human non-small-cell lung carcinoma cells (EGFR1 wildtype)
Experimental: as §1, §2

RET = RET (Homo sapiens, UniProt P07949); assay: In vitro enzyme experiment (ELISA), RET; assay type: biochemical; conditions: Poly (Glu, Tyr)4:1 substrate, 5 μM ATP
Experimental: RET: A receptor involved in thyroid cancer
(§3) ELISA: The enzyme plate was coated by enzyme reaction substrate (Poly (Glu, Tyr)4:1) at a density of 20 μg/ml. Then the enzyme, the sample and 5 μM ATP were mixed in the well to react. After the reaction, the substrate phosphorylation was detected by anti-phosphotyrosine monoclonal antibody (4G10). In the next step, the goat-anti-mouse IgG linking with horse radish peroxidase (HRP) and tetramethylbenzidine (TMB) were added sequentially in the well to evaluate the level of substrate phosphorylation by the degree of color depth. In the experiment, a blank group without tyrosine kinase and a control group with the corresponding concentration of DMSO were established. Finally, 50 μL/well of H2SO4 at a concentration of 0.18M was added in each well to stop the reaction. The optical density (OD) of each sample was measured in a micro-plate reader at 450 nm.
(§4) The relative inhibition rate of the compound against tyrosine kinase protein was determined.
(§5) According to the inhibition rates at different concentrations, IC50 was calculated by LOGIT method. The experiments were repeated three times, and the average of three IC50 values was the final index to evaluate the ability of inhibition.

TT = assay: In vitro cell experiment (MTT), TT; assay type: cell-based; conditions: 72 h, human thyroid carcinoma cells (RET C634W mutation)
Experimental: as §1, §2

FGFR-1 = FGFR-1 (Homo sapiens, UniProt P11362); assay: In vitro enzyme experiment (ELISA), FGFR-1; assay type: biochemical; conditions: Poly (Glu, Tyr)4:1 substrate, 5 μM ATP
Experimental: FGFR-1: Fibroblast growth factor receptor 1
as §3, §4, §5

3T3swiss = assay: In vitro cell experiment (MTT), 3T3swiss; assay type: cell-based; conditions: Fibroblast, 72 h, mouse fibroblasts (PDGFR overexpressing)
Experimental: as §1, §2

AXL = AXL (Homo sapiens, UniProt P30530); assay: In vitro enzyme experiment (ELISA), AXL; assay type: biochemical; conditions: Poly (Glu, Tyr)4:1 substrate, 5 μM ATP
Experimental: as §3, with “AXL: Anaplastic lymphoma kinase Methods: ELISA:” for “ELISA:”, “nm. The relative inhibition rate of the compound against tyrosine kinase protein was determined. According to the inhibition rates at different concentrations, IC50 was calculated by LOGIT method. The experiments were repeated three times, and the average of three IC50 values was the final index to evaluate the ability of inhibition.” for “nm.”

PC-9 = assay: In vitro cell experiment (MTT), PC-9; assay type: cell-based; conditions: 72 h, human non-small-cell lung carcinoma cells (EGFR1 19 exon mutation)
Experimental: as §1, §2

FLT-1 = FLT-1 (Homo sapiens, UniProt P17948); assay: In vitro enzyme experiment (ELISA), FLT-1; assay type: biochemical; conditions: Poly (Glu, Tyr)4:1 substrate, 5 μM ATP
Experimental: FLT-1: Human vascular endothelial growth factor receptor 1
as §3, §4, §5

PDGFRβ = PDGFRβ (Homo sapiens, UniProt P09619); assay: In vitro enzyme experiment (ELISA), PDGFRβ; assay type: biochemical; conditions: Poly (Glu, Tyr)4:1 substrate, 5 μM ATP
Experimental: PDGFRβ: Platelet-derived growth factor receptor β
as §3, §4, §5

A431 = assay: In vitro cell experiment (MTT), A431; assay type: cell-based; conditions: A-431, 72 h, human epidermoid carcinoma (EGFR1 overexpressing)
Experimental: as §1, §2

CFPAC-1 = assay: In vitro cell experiment (MTT), CFPAC-1; assay type: cell-based; conditions: 72 h, human pancreatic carcinoma cells
Experimental: as §1, §2

HT-29 = assay: In vitro cell experiment (MTT), HT-29; assay type: cell-based; conditions: 72 h, human colon carcinoma cells (expressing both c-KIT and PDGFR)
Experimental: as §1, §2

KDR = KDR (Homo sapiens, UniProt P35968); assay: In vitro enzyme experiment (ELISA), KDR; assay type: biochemical; conditions: Poly (Glu, Tyr)4:1 substrate, 5 μM ATP
Experimental: KDR: Human vascular endothelial growth factor receptor 2
as §3, §4, §5

BTK = BTK (Homo sapiens, UniProt Q06187); assay: In vitro enzyme experiment (ELISA), BTK; assay type: biochemical; conditions: Poly (Glu, Tyr)4:1 substrate, 5 μM ATP
Experimental: BTK: Bruton tyrosine kinase
as §3, §4, §5

EGFR = EGFR (Homo sapiens, UniProt P00533); assay: In vitro enzyme experiment (ELISA), EGFR; assay type: biochemical; conditions: Poly (Glu, Tyr)4:1 substrate, 5 μM ATP
Experimental: EGFR: Human epidermal growth factor receptor 1
as §3, §4, §5

Chain of PDGFRβ (P09619 33-1106, species assumed): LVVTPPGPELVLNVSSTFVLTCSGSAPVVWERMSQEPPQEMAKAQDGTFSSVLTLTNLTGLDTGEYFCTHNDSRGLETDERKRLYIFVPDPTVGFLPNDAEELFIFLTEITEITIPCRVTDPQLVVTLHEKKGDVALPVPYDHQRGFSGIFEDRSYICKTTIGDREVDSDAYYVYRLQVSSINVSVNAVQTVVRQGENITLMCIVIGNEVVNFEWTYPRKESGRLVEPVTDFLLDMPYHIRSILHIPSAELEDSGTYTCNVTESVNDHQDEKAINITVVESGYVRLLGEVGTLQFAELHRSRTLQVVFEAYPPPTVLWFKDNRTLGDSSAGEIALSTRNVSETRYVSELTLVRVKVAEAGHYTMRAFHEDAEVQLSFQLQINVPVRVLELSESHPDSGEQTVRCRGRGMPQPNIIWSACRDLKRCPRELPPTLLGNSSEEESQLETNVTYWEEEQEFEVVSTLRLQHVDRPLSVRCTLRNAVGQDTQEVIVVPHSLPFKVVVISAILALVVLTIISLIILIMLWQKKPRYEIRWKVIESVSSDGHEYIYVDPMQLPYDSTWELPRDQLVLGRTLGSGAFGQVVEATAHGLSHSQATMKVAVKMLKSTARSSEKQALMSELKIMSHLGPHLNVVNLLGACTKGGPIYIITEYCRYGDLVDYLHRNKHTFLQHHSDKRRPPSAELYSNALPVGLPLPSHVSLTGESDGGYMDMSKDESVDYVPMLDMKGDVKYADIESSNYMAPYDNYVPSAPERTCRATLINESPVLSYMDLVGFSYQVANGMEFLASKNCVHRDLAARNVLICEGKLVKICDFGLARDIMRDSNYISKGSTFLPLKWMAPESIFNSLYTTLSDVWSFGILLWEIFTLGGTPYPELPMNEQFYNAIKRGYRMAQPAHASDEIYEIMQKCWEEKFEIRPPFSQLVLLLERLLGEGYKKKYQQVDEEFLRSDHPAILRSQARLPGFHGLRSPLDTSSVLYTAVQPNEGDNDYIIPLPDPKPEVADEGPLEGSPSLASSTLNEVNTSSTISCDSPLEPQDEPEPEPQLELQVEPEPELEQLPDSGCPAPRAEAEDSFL
Chain of FGFR-1 (P11362 22-822, species assumed): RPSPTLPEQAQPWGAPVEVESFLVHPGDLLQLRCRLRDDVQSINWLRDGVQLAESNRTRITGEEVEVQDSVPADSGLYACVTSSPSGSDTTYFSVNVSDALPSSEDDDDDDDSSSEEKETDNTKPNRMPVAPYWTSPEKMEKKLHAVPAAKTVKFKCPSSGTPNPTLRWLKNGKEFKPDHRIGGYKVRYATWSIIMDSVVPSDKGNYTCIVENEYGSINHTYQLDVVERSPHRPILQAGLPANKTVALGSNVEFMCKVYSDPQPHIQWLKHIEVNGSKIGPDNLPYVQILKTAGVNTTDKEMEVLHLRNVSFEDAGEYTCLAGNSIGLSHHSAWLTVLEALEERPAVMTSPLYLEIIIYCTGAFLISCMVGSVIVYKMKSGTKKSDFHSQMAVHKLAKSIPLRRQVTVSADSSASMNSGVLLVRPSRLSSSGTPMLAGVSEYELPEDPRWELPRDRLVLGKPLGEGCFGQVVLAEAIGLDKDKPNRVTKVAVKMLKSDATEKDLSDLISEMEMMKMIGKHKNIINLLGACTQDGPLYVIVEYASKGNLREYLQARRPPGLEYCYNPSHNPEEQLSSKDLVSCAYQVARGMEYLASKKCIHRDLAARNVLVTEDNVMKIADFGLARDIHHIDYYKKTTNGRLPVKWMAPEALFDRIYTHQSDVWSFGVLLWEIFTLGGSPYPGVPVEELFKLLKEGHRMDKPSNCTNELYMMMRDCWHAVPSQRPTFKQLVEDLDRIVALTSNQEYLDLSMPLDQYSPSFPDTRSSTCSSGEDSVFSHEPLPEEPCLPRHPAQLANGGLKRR
Chain of KDR (P35968 20-1356): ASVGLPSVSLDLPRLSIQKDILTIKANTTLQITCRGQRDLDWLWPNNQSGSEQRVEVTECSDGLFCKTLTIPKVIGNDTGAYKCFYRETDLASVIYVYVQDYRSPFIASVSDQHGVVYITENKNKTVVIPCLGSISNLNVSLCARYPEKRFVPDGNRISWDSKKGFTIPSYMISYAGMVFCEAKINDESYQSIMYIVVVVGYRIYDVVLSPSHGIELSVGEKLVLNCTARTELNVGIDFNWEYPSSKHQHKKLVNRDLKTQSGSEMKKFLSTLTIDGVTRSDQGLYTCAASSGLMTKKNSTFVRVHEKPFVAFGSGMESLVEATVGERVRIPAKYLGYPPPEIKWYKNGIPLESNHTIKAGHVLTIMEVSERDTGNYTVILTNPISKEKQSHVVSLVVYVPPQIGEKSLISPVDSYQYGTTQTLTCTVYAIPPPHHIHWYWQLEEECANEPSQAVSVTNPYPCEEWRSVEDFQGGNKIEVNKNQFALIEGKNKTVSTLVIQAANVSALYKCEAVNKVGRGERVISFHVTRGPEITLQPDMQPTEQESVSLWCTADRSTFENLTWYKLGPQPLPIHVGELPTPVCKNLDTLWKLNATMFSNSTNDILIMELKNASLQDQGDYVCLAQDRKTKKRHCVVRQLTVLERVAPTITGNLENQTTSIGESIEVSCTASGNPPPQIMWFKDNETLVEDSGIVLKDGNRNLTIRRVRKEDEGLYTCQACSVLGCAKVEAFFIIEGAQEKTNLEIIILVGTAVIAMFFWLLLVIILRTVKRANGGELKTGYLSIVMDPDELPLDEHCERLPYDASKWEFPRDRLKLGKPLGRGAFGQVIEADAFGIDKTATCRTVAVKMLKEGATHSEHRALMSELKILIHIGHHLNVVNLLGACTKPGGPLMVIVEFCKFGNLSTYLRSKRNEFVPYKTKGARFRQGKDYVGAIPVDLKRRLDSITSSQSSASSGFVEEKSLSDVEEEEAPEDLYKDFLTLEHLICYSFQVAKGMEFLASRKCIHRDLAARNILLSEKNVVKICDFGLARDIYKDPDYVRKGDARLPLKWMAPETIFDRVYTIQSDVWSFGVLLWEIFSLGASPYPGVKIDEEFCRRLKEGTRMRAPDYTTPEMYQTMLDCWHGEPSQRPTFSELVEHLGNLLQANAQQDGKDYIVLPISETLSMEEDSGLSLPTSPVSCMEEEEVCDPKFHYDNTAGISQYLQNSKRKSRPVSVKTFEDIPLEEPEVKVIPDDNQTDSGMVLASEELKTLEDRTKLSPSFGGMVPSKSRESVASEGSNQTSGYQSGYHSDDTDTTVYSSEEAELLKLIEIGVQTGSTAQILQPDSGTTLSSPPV
Chain of BTK (Q06187 whole entry, species assumed): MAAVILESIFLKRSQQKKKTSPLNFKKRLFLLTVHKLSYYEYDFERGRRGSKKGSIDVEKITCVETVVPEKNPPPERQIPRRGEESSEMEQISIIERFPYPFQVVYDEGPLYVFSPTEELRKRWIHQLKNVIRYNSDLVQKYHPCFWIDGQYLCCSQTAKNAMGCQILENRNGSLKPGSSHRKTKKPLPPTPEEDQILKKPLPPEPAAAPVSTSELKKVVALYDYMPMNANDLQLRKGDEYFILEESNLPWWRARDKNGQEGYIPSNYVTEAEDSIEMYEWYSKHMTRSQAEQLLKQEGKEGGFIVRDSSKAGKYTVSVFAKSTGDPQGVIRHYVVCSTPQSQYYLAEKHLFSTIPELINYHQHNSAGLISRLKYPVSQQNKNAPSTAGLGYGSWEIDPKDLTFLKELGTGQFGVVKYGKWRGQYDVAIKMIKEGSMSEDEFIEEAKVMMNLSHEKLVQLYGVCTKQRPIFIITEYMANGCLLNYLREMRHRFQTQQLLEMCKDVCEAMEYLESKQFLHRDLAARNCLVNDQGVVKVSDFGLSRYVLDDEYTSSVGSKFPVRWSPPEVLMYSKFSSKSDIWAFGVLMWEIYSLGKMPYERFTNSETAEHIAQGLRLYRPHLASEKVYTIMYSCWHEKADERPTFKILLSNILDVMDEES
Chain of AXL (P30530 473-894): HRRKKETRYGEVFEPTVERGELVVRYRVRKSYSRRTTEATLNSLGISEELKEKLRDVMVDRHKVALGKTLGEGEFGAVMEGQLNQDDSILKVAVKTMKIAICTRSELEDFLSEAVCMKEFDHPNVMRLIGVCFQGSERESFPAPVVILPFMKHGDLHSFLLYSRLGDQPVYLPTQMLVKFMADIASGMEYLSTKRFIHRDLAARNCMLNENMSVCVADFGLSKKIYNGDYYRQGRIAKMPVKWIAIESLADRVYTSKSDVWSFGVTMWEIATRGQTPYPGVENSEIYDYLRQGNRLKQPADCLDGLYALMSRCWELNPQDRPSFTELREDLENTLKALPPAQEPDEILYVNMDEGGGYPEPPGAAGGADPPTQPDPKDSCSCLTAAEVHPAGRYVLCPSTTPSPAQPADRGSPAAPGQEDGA

Row | SMILES | IC50 (A375) [µM] | IC50 (HCC827) [µM] | IC50 (HCT116) [µM] | IC50 (HUVEC) [µM] | IC50 (H292) [µM] | IC50 (Eca109) [µM] | IC50 (Bel-7402) [µM] | IC50 (SK-OV-3) [µM] | IC50 (A498) [µM] | IC50 (SGC7901) [µM] | IC50 (A549) [µM] | IC50 (RET) [µM] | IC50 (TT) [µM] | IC50 (FGFR-1) [µM] | IC50 (3T3swiss) [µM] | IC50 (AXL) [µM] | IC50 (PC-9) [µM] | IC50 (A431) [µM] | IC50 (CFPAC-1) [µM] | IC50 (HT-29) [µM] | further results
1 | COc1cc2c(Nc3ccc(Br)cc3F)ncnc2cc1OCCN1CCCC1 [Compound 2, 4-(4-bromo-2-fluoroanilino)-6-methoxy-7-((2-pyrrolidine-1-yl)ethoxy)quinazoline] | 0.185 | 0.0056 | 1.08 | 0.0404 | 0.0463 | 5.8 |  |  |  |  |  |  |  |  |  |  |  |  |  |  | 
2 | COc1cc2c(Nc3ccc(Br)cc3F)ncnc2cc1OCCCn1ccnc1 [Compound 14, 4-(4-bromo-2-fluoroanilino)-6-methoxy-7-(3-(1H-imidazol-1-yl)propoxy)quinazoline] | 0.161 | 0.0089 | 0.913 |  | 0.0374 |  | 5.94 | 2.88 | 2.73 |  |  |  |  |  |  |  |  |  |  |  | MTD [1]: 62.5 to 125 mg/kg
3 | COc1cc2c(Nc3ccc(Cl)cc3F)ncnc2cc1OCCCN1CCCC1 [Compound 44, 4-(2-fluoro-4-chloroanilino)-6-methoxy-7-(3-(pyrrolidin-1-yl)-propoxy)quinazoline, reference compound] | 0.315 |  | 0.988 | 0.199 | 0.124 | 6.98 | 9.68 | 4.03 | 3.05 | 5.25 | 4.9 | 0.0234 | 0.257 | 0.0398 | 2.9 | 2.99 | 0.0168 | 3.57 | 6.72 | 3.46 | IC50 (FLT-1): 0.0512 µM; IC50 (PDGFRβ): 0.306 µM; IC50 (KDR): 0.0405 µM; IC50 (BTK): 0.424 µM
4 | COc1cc2c(Nc3ccc(Br)cc3F)ncnc2cc1OCCCN1CCCCC1 [Compound 45, 4-(2-fluoro-4-bromoanilino)-6-methoxy-7-(3-(piperidin-1-yl)-propoxy)quinazoline, reference compound] | 0.289 | 0.0097 | 1.06 | 0.187 | 0.105 | 7.02 | 6.26 | 4.99 | 3.15 | 6.26 | 5.02 | 0.0275 | 0.315 | 0.0416 | 3.79 | 2.99 | 0.0187 | 4.15 | 6.72 | 3.41 | IC50 (FLT-1): 0.0501 µM; IC50 (PDGFRβ): 0.328 µM; IC50 (KDR): 0.0386 µM; IC50 (BTK): 0.414 µM; IC50 (EGFR): 0.159 µM
5 | COc1cc2c(Nc3ccc(Br)cc3F)ncnc2cc1OCC1CCN(C)CC1 [Vandetanib, reference compound] |  | 0.0193 | 1.21 |  | 0.167 | 6.86 | 6.85 | 3.51 | 2.96 | 6.85 | 4.45 |  | 0.192 |  | 2.53 |  | 0.0149 | 3.23 | 6.26 | 3.23 | 
